In data set [1] the test system is Key Broadleaf Weed and Crop Species. Put plainly: Post-emergent Test II herbicidal activity (Table 5). It counts as in vivo. As to conditions: post-emergence, 336 h, 14 days after application; for pest or weed control at 70 g/ha: application rate 70 g ai/ha. Summed up:
(§1)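 Greenhouse-grown plants at first or second true leaf stage were sprayed post-emergence with compound in acetone/DMSO-based aqueous spray containing crop oil concentrate and surfactant, at 187 L/ha, highest rate plus ½× to 1/16× dilutions. After 14 d, injury was scored visually versus untreated plants, 0 (none) to 100% (complete kill).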

The test system of data set [2] is Key Grass and Sedge Weeds as well as Grass Crops. Put plainly: Post-emergent Test II herbicidal activity (Table 6). The settings on record: post-emergence, 336 h; for pest or weed control at 140 g/ha: application rate 140 g ai/ha; for pest or weed control at 70 g/ha: application rate 70 g ai/ha. The format is in vivo. The essentials:
as §1

Setting [3] is: Triticum aestivum, TRZSS (wheat), read-out: Visual Growth Reduction (%) 14 Days After Application, TRZSS.
Setting [4] is: CYPES: yellow nutsedge (Cyperus esculentus), read-out: Visual Growth Reduction (%) 14 Days After Application, CYPES.
[5] abbreviates: DIGSA: crabgrass (Digitaria sanguinalis), read-out: Visual Growth Reduction (%) 14 Days After Application, DIGSA.
Setting [6] is: ECHCG: barnyardgrass (Echinochloa crus-galli), read-out: Visual Growth Reduction (%) 14 Days After Application, ECHCG.
Setting [7] is: ORYSA: rice (Oryza sativa), read-out: Visual Growth Reduction (%) 14 Days After Application, ORYSA.
[8] abbreviates: SETFA: giant foxtail (Setaria faberi), read-out: Visual Growth Reduction (%) 14 Days After Application, SETFA.
[9] abbreviates: SORVU: grain sorghum (Sorghum vulgare), read-out: Visual Growth Reduction (%) 14 Days After Application, SORVU.
[10] abbreviates: ZEAMX: maize, corn (Zea mays), read-out: Visual Growth Reduction (%) 14 Days After Application, ZEAMX.

Read-outs that look alike come from different tables or passages of the source.

In general, melting point refers to the temperature, or range, at which the solid turns liquid.

`C#Cc1ccc(-c2nc(N)c(OC)c(C(=O)O)n2)cc1` [Compound 28]: the melting point lay in the range of 170.7 to 171.3 °C. For the same compound, the pest or weed control at 140 g/ha in data set [1] (ABUTH: velvetleaf (Abutilon theophrasti), 140 g ai/ha, post-emergent, read-out: Visual Growth Reduction (%) 14 Days After Application ABUTH) was in the range of 0 to 29%. Further, the pest or weed control at 140 g/ha in data set [1] (AMARE: redroot pigweed (Amaranthus retroflexus), 140 g ai/ha, post-emergent, read-out: Visual Growth Reduction (%) 14 Days After Application AMARE) lay in the range of 95 to 100%. In data set [1] (BRSNN: oilseed-rape, canola (Brassica napus), 140 g ai/ha, post-emergent, read-out: Visual Growth Reduction (%) 14 Days After Application BRSNN), the pest or weed control at 140 g/ha is 0 to 29%. In addition, the pest or weed control at 140 g/ha in data set [1] (CHEAL: lambsquarters (Chenopodium album), 140 g ai/ha, post-emergent, read-out: Visual Growth Reduction (%) 14 Days After Application CHEAL) lay in the range of 95 to 100%. Further, in data set [1] (EPHHL: wild poinsettia (Euphorbia heterophylla), 140 g ai/ha, post-emergent, read-out: Visual Growth Reduction (%) 14 Days After Application EPHHL), the pest or weed control at 140 g/ha lay in the range of 95 to 100%. Besides, the pest or weed control at 140 g/ha in data set [1] (HELAN: sunflower (Helianthus annuus), 140 g ai/ha, post-emergent, read-out: Visual Growth Reduction (%) 14 Days After Application HELAN) was 85 to 94%. For the same compound, the pest or weed control at 140 g/ha in data set [1] (VIOTR: wild pansy (Viola tricolor), 140 g ai/ha, post-emergent, read-out: Visual Growth Reduction (%) 14 Days After Application VIOTR) lay within 0 to 29%. The pest or weed control at 140 g/ha in data set [2] (setting [3]) was in the range of 0 to 29%. Moreover, the pest or weed control at 140 g/ha in data set [2] (setting [4]) is 0 to 29%. For the same compound, the pest or weed control at 140 g/ha in data set [2] (setting [5]) was 60 to 74%. The pest or weed control at 140 g/ha in data set [2] (setting [6]) fell in the range of 0 to 29%. Moreover, the pest or weed control at 140 g/ha in data set [2] (setting [7]) was 0 to 29%. Moreover, in data set [2] (setting [8]), the pest or weed control at 140 g/ha is 45 to 59%. The pest or weed control at 140 g/ha in data set [2] (setting [9]) was in the range of 0 to 29%. For the same compound, the pest or weed control at 140 g/ha in data set [2] (setting [10]) lay within 60 to 74%.
In turn, `COC(=O)c1nc(-c2ccc(C(F)(F)F)c(F)c2)cc(N)c1Cl` [Compound 29, methyl 4-amino-3-chloro-6-(3-fluoro-4-(trifluoromethyl)phenyl)picolinate] showed a melting point of 145 to 146 °C. Further, the pest or weed control at 70 g/ha in data set [1] (ABUTH: velvetleaf (Abutilon theophrasti), read-out: Visual Growth Reduction (%) 14 Days After Application, ABUTH) was in the range of 85 to 94%. The pest or weed control at 140 g/ha in data set [1] (ABUTH: velvetleaf (Abutilon theophrasti), application rate 140 g ai/ha, read-out: Visual Growth Reduction (%) 14 Days After Application, ABUTH) fell in the range of 85 to 94%. Besides, in data set [1] (AMARE: redroot pigweed (Amaranthus retroflexus), read-out: Visual Growth Reduction (%) 14 Days After Application, AMARE), the pest or weed control at 70 g/ha fell in the range of 60 to 74%. Further, the pest or weed control at 140 g/ha in data set [1] (AMARE: redroot pigweed (Amaranthus retroflexus), application rate 140 g ai/ha, read-out: Visual Growth Reduction (%) 14 Days After Application, AMARE) lay within 60 to 74%. In data set [1] (BRSNN: oilseed-rape, canola (Brassica napus), read-out: Visual Growth Reduction (%) 14 Days After Application, BRSNN), the pest or weed control at 70 g/ha lay within 45 to 59%. The pest or weed control at 140 g/ha in data set [1] (BRSNN: oilseed-rape, canola (Brassica napus), application rate 140 g ai/ha, read-out: Visual Growth Reduction (%) 14 Days After Application, BRSNN) fell in the range of 60 to 74%. Moreover, the pest or weed control at 70 g/ha in data set [1] (CHEAL: lambsquarters (Chenopodium album), read-out: Visual Growth Reduction (%) 14 Days After Application, CHEAL) is 95 to 100%. In addition, the pest or weed control at 140 g/ha in data set [1] (CHEAL: lambsquarters (Chenopodium album), application rate 140 g ai/ha, read-out: Visual Growth Reduction (%) 14 Days After Application, CHEAL) lay within 95 to 100%. The pest or weed control at 70 g/ha in data set [1] (EPHHL: wild poinsettia (Euphorbia heterophylla), read-out: Visual Growth Reduction (%) 14 Days After Application, EPHHL) was 95 to 100%. Besides, the pest or weed control at 140 g/ha in data set [1] (EPHHL: wild poinsettia (Euphorbia heterophylla), application rate 140 g ai/ha, read-out: Visual Growth Reduction (%) 14 Days After Application, EPHHL) lay in the range of 95 to 100%. Besides, the pest or weed control at 70 g/ha in data set [1] (HELAN: sunflower (Helianthus annuus), read-out: Visual Growth Reduction (%) 14 Days After Application, HELAN) lay within 85 to 94%. For the same compound, the pest or weed control at 140 g/ha in data set [1] (HELAN: sunflower (Helianthus annuus), application rate 140 g ai/ha, read-out: Visual Growth Reduction (%) 14 Days After Application, HELAN) was 85 to 94%. In data set [1] (VIOTR: wild pansy (Viola tricolor), read-out: Visual Growth Reduction (%) 14 Days After Application, VIOTR), the pest or weed control at 70 g/ha was 0 to 29%. Besides, in data set [1] (VIOTR: wild pansy (Viola tricolor), application rate 140 g ai/ha, read-out: Visual Growth Reduction (%) 14 Days After Application, VIOTR), the pest or weed control at 140 g/ha lay within 0 to 29%. In data set [2] (setting [3]), the pest or weed control at 70 g/ha fell in the range of 0 to 29% and the pest or weed control at 140 g/ha fell in the range of 0 to 29%. Also, in data set [2] (setting [4]), the pest or weed control at 70 g/ha was in the range of 30 to 44% and the pest or weed control at 140 g/ha lay in the range of 45 to 59%. Moreover, in data set [2] (setting [5]), the pest or weed control at 70 g/ha was 30 to 44% and the pest or weed control at 140 g/ha is 60 to 74%. Besides, in data set [2] (setting [6]), the pest or weed control at 70 g/ha was in the range of 0 to 29% and the pest or weed control at 140 g/ha was 0 to 29%. In addition, in data set [2] (setting [7]), the pest or weed control at 70 g/ha was in the range of 0 to 29% and the pest or weed control at 140 g/ha was 0 to 29%. Moreover, in data set [2] (setting [8]), the pest or weed control at 70 g/ha lay in the range of 0 to 29% and the pest or weed control at 140 g/ha was in the range of 0 to 29%. Also, in data set [2] (setting [9]), the pest or weed control at 70 g/ha was in the range of 45 to 59% and the pest or weed control at 140 g/ha is 45 to 59%. Also, in data set [2] (setting [10]), the pest or weed control at 70 g/ha lay within 0 to 29% and the pest or weed control at 140 g/ha was in the range of 0 to 29%.

Source of the values: patent publication US9113629B2, “4-amino-6-(4-substituted-phenyl)-picolinates and 6-amino-2-(4-substituted-phenyl)-pyrimidine-4-carboxylates and their use as herbicides” (DOW AGROSCIENCES LLC, priority 2013, dated 2015).
